Assay results from the NIST ThermoML archive (doi:10.1007/s10765-010-0768-y).

Assay: xn = mol fraction of the nth substance listed
Settings: 101 kPa, Liquid, Pycnometric method

C=CC(=O)OCCCC [butyl 2-propenoate] + c1ccccc1
mass density [kg/m3]
Settings | 288.15 K | 293.15 K | 298.15 K | 303.15 K | 308.15 K | 313.15 K | 318.15 K
x1 = 0.0722 | 887.23 | 881.89 | 876.56 | 871.23 | 865.9 | 860.57 | 855.24
x1 = 0.142 | 889.79 | 884.48 | 879.17 | 873.86 | 868.56 | 863.26 | 857.96
x1 = 0.2062 | 891.94 | 886.65 | 881.36 | 876.08 | 870.8 | 865.52 | 860.24
x1 = 0.2794 | 894.12 | 888.87 | 883.62 | 878.37 | 873.12 | 867.87 | 862.62
x1 = 0.3586 | 896.24 | 891.02 | 885.8 | 880.58 | 875.36 | 870.14 | 864.92
x1 = 0.4363 | 898.02 | 892.83 | 887.64 | 882.46 | 877.28 | 872.1 | 866.92
x1 = 0.5074 | 899.4 | 894.25 | 889.11 | 883.97 | 878.83 | 873.69 | 868.55
x1 = 0.5818 | 900.63 | 895.53 | 890.43 | 885.33 | 880.23 | 875.13 | 870.03
x1 = 0.6423 | 901.47 | 896.4 | 891.33 | 886.26 | 881.2 | 876.14 | 871.08
x1 = 0.7226 | 902.36 | 897.34 | 892.32 | 887.3 | 882.29 | 877.28 | 872.27
x1 = 0.7902 | 902.91 | 897.94 | 892.97 | 888 | 883.03 | 878.07 | 873.11
x1 = 0.8563 | 903.29 | 898.38 | 893.47 | 888.56 | 883.65 | 878.75 | 873.85
x1 = 0.9305 | 903.53 | 898.69 | 893.85 | 889.01 | 884.18 | 879.35 | 874.52
x1 = 1 | 903.6 | 898.85 | 894.1 | 889.35 | 884.6 | 879.85 | 875.1

C=CC(=O)OCCCC [butyl 2-propenoate] + Cc1cccc(C)c1
mass density [kg/m3]
Settings | 288.15 K | 293.15 K | 298.15 K | 303.15 K | 308.15 K | 313.15 K | 318.15 K
x1 = 0.0732 | 871.73 | 867.39 | 863.05 | 858.71 | 854.37 | 850.04 | 845.71
x1 = 0.1432 | 874.65 | 870.26 | 865.87 | 861.48 | 857.1 | 852.72 | 848.34
x1 = 0.2103 | 877.37 | 872.94 | 868.51 | 864.08 | 859.66 | 855.24 | 850.82
x1 = 0.2841 | 880.28 | 875.81 | 871.34 | 866.87 | 862.41 | 857.95 | 853.49
x1 = 0.3605 | 883.19 | 878.68 | 874.17 | 869.66 | 865.16 | 860.66 | 856.16
x1 = 0.4318 | 885.82 | 881.28 | 876.74 | 872.2 | 867.66 | 863.12 | 858.58
x1 = 0.5006 | 888.28 | 883.7 | 879.12 | 874.55 | 869.98 | 865.41 | 860.84
x1 = 0.5778 | 890.95 | 886.34 | 881.73 | 877.12 | 872.51 | 867.9 | 863.3
x1 = 0.6534 | 893.46 | 888.81 | 884.17 | 879.53 | 874.89 | 870.25 | 865.61
x1 = 0.7204 | 895.6 | 890.93 | 886.26 | 881.59 | 876.92 | 872.25 | 867.58
x1 = 0.7935 | 897.84 | 893.13 | 888.43 | 883.73 | 879.03 | 874.33 | 869.63
x1 = 0.8579 | 899.73 | 895 | 890.27 | 885.54 | 880.82 | 876.1 | 871.38
x1 = 0.9306 | 901.78 | 897.03 | 892.28 | 887.53 | 882.79 | 878.05 | 873.31
x1 = 1 | 903.6 | 898.85 | 894.1 | 889.35 | 884.6 | 879.85 | 875.1
